Where “and” joins values, the source holds several entries; their conditions need not be identical. Equal values may be shown once. Inconclusive results and toxic doses are left out. Rule as the data show it: active = T/C of 150% or more; inactive = T/C below 125%.
Test system: L1210 leukemia ip in BDF1 mice, survival T/C
Assay: NCI In Vivo Anticancer Drug Screen. Data for tumor model L1210 Leukemia (intraperitoneal) in B6D2F1 (BDF1) mice
Settings: endpoint: mean survival time, higher = longer survival
In short: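 Survival endpoint. Drug-treated group vs vehicle group, expressed as T divided by C. Tumor passaged by transplantation.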

[1] = dose: 100.0 mg/kg/injection, schedule: Q01DX009 (ip), vehicle: saline
[2] = dose: 100.0 mg/kg/injection, schedule: Q04DX003 (ip), vehicle: acetone
[3] = dose: 200.0 mg/kg/injection, schedule: Q01DX009 (ip), vehicle: saline
[4] = dose: 400.0 mg/kg/injection, schedule: Q01DX009 (ip), vehicle: saline
[5] = dose: 50.0 mg/kg/injection, schedule: Q01DX009 (ip), vehicle: saline
[6] = dose: 12.5 mg/kg/injection, schedule: Q01DX009 (ip), vehicle: saline with Tween-80
[7] = dose: 25.0 mg/kg/injection, schedule: Q01DX009 (ip), vehicle: saline with Tween-80
[8] = dose: 200.0 mg/kg/injection, schedule: Q04DX002 (ip), vehicle: Klucel (hydroxypropylcellulose) (HPC)
[9] = dose: 400.0 mg/kg/injection, schedule: Q04DX002 (ip), vehicle: Klucel (hydroxypropylcellulose) (HPC)
[10] = dose: 100.0 mg/kg/injection, schedule: Q04DX002 (ip), vehicle: saline with Tween-80
[11] = dose: 100.0 mg/kg/injection, schedule: Q04DX003 (ip), vehicle: saline with Tween-80
[12] = dose: 200.0 mg/kg/injection, schedule: Q04DX003 (ip), vehicle: saline with Tween-80
[13] = dose: 400.0 mg/kg/injection, schedule: Q04DX003 (ip), vehicle: saline with Tween-80
[14] = dose: 12.5 mg/kg/injection, schedule: Q01DX009 (ip), vehicle: saline

Measured: T/C

Cc1cccc(C)c1/C=C/S(=O)(=O)c1ccccc1
inactive: dose: 100.0 mg/kg/injection, schedule: Q01DX001 (ip), vehicle: acetone 98 % of control | [1] 94 % of control | [2] 109 % of control | dose: 200.0 mg/kg/injection, schedule: Q01DX001 (ip), vehicle: acetone 98 % of control | [3] 103 % of control | dose: 200.0 mg/kg/injection, schedule: Q04DX003 (ip), vehicle: acetone 103 % of control | dose: 400.0 mg/kg/injection, schedule: Q01DX001 (ip), vehicle: acetone 106 % of control | [4] 94 % of control | dose: 400.0 mg/kg/injection, schedule: Q04DX003 (ip), vehicle: acetone 101 % of control

OCC1OC(n2ccc3c2ncn2ccnc32)C(O)C1O (stereo not given)
inactive: dose: 25.0 mg/kg/injection, schedule: Q01DX005 (ip), vehicle: saline 91 % of control | dose: 50.0 mg/kg/injection, schedule: Q01DX005 (ip), vehicle: saline 105 % of control | [5] 102 % of control | dose: 100.0 mg/kg/injection, schedule: Q01DX005 (ip), vehicle: saline 93 % of control | [1] 103 % of control

CC(=O)CC(=O)NCCCN1CCCCC1
inactive: [6] 103 % of control | dose: 12.5 mg/kg/injection, schedule: Q04DX003 (ip), vehicle: saline with Tween-80 103 % of control | [7] 100 % of control | dose: 25.0 mg/kg/injection, schedule: Q04DX003 (ip), vehicle: saline with Tween-80 106 % of control | dose: 50.0 mg/kg/injection, schedule: Q04DX003 (ip), vehicle: saline with Tween-80 97 % of control and 103 % of control

OC(c1nc2ccccc2[nH]1)C(O)C(O)C(O)c1nc2ccccc2[nH]1 (stereo not given)
inactive: dose: 100.0 mg/kg/injection, schedule: Q01DX001 (ip), vehicle: saline 105 % of control | dose: 100.0 mg/kg/injection, schedule: Q04DX002 (ip), vehicle: Klucel (hydroxypropylcellulose) (HPC) 100 % of control | dose: 200.0 mg/kg/injection, schedule: Q01DX001 (ip), vehicle: saline 96 % of control | [8] 87 % of control | dose: 400.0 mg/kg/injection, schedule: Q01DX001 (ip), vehicle: saline 86 % of control | [9] 97 % of control

Clc1nc(N2CC2)nc(N2CC2)n1
inactive: dose: 2.5 mg/kg/injection, schedule: Q01DX001 (ip), vehicle: carboxymethylcellulose (CMC) 112 % of control | dose: 5.0 mg/kg/injection, schedule: Q01DX001 (ip), vehicle: carboxymethylcellulose (CMC) 112 % of control | dose: 10.0 mg/kg/injection, schedule: Q01DX001 (ip), vehicle: carboxymethylcellulose (CMC) 117 % of control | dose: 15.0 mg/kg/injection, schedule: Q01DX001 (ip), vehicle: carboxymethylcellulose (CMC) 114 % of control

NNC(=O)CCSc1ccccc1
inactive: [6] 89 % of control | [7] 99 % of control | dose: 50.0 mg/kg/injection, schedule: Q01DX009 (ip), vehicle: saline with Tween-80 105 % of control

C/C=C/c1ccc(O)c(OC)c1
inactive: [10] 92 % of control | dose: 200.0 mg/kg/injection, schedule: Q04DX002 (ip), vehicle: saline with Tween-80 86 % of control | dose: 400.0 mg/kg/injection, schedule: Q04DX002 (ip), vehicle: saline with Tween-80 86 % of control

CCC(C)OC(=O)Nc1cccc(OC(=O)NC)c1 (stereo not given)
inactive: [11] 104 % of control | [12] 94 % of control | [13] 97 % of control

CCOc1ccc(NC(=O)C(C(C)N2CCCCC2)N2CCCCC2)cc1 (stereo not given)
inactive: dose: 12.5 mg/kg/injection, schedule: Q01DX001 (ip), vehicle: saline 94 % of control | [14] 95 % of control | dose: 12.5 mg/kg/injection, schedule: Q04DX003 (ip), vehicle: saline 97 % of control | dose: 25.0 mg/kg/injection, schedule: Q01DX001 (ip), vehicle: saline 95 % of control | dose: 25.0 mg/kg/injection, schedule: Q01DX009 (ip), vehicle: saline 92 % of control | dose: 25.0 mg/kg/injection, schedule: Q04DX003 (ip), vehicle: saline 95 % of control | dose: 50.0 mg/kg/injection, schedule: Q01DX001 (ip), vehicle: saline 90 % of control | [5] 91 % of control | dose: 50.0 mg/kg/injection, schedule: Q04DX003 (ip), vehicle: saline 92 % of control

O=c1c2ccccc2nc(CCN(CCCl)CCCl)n1-c1ccc(Cl)cc1
inactive: dose: 150.0 mg/kg/injection, schedule: Q04DX002 (ip), vehicle: Klucel (hydroxypropylcellulose) (HPC) 92 % of control | [8] 98 % of control | [9] 106 % of control

CCOC(=O)CN=NNc1[nH]ncc1C(N)=O
inactive: dose: 100.0 mg/kg/injection, schedule: Q01DX001 (ip), vehicle: other 102 % of control | dose: 100.0 mg/kg/injection, schedule: Q01DX009 (ip), vehicle: saline with Tween-80 115 % of control | dose: 100.0 mg/kg/injection, schedule: Q04DX003 (ip), vehicle: other 101 % of control | dose: 200.0 mg/kg/injection, schedule: Q01DX001 (ip), vehicle: other 104 % of control | dose: 200.0 mg/kg/injection, schedule: Q01DX009 (ip), vehicle: saline with Tween-80 115 % of control | dose: 200.0 mg/kg/injection, schedule: Q04DX003 (ip), vehicle: other 113 % of control | dose: 400.0 mg/kg/injection, schedule: Q01DX001 (ip), vehicle: other 105 % of control | dose: 400.0 mg/kg/injection, schedule: Q01DX009 (ip), vehicle: saline with Tween-80 116 % of control | dose: 400.0 mg/kg/injection, schedule: Q04DX003 (ip), vehicle: other 104 % of control

CC(C)CCCC(C)C1CCC2C3CC(O)C4=CCCCC4(C)C3CCC12C (stereo not given)
inactive: dose: 9.38 mg/kg/injection, schedule: Q01DX001 (ip), vehicle: other 97 % of control | dose: 18.75 mg/kg/injection, schedule: Q01DX001 (ip), vehicle: other 94 % of control | dose: 37.5 mg/kg/injection, schedule: Q01DX001 (ip), vehicle: other 94 % of control

CCOC(=O)/C(O)=C\c1cc(OC)n[n+]([O-])c1Cl
inactive: dose: 25.0 mg/kg/injection, schedule: Q04DX002 (ip), vehicle: saline with Tween-80 102 % of control | dose: 50.0 mg/kg/injection, schedule: Q04DX002 (ip), vehicle: saline with Tween-80 98 % of control | [10] 102 % of control

N#CC1=C(C#N)C(=O)C(Cl)=C(Cl)C1=O
inactive: dose: 6.25 mg/kg/injection, schedule: Q01DX009 (ip), vehicle: saline 98 % of control | [14] 102 % of control | dose: 12.5 mg/kg/injection, schedule: Q04DX003 (ip), vehicle: saline sonified 104 % of control | dose: 25.0 mg/kg/injection, schedule: Q04DX003 (ip), vehicle: saline sonified 93 % of control

O=C(Nc1ccc([N+](=O)[O-])cc1Cl)N(CC(O)c1ccccc1)C1CCCCC1 (stereo not given)
inactive: [1] 90 % of control | dose: 100.0 mg/kg/injection, schedule: Q04DX003 (ip), vehicle: saline 108 % of control | [3] 95 % of control | dose: 200.0 mg/kg/injection, schedule: Q04DX003 (ip), vehicle: saline 102 % of control | [4] 96 % of control | dose: 400.0 mg/kg/injection, schedule: Q04DX003 (ip), vehicle: saline 100 % of control

CCCCCCCCCCCCCCCCCOC(=O)CCCCCCCCCCCCCCCCC
inactive: [11] 103 % of control | [12] 92 % of control | [13] 89 % of control

C#CC(C)OCC(C)OC(C)=O (stereo not given)
inactive: dose: 25.0 mg/kg/injection, schedule: Q01DX009 (ip), vehicle: acetone 95 % of control | dose: 50.0 mg/kg/injection, schedule: Q01DX009 (ip), vehicle: acetone 94 % of control | dose: 100.0 mg/kg/injection, schedule: Q01DX009 (ip), vehicle: acetone 99 % of control | [2] 100 % of control | dose: 150.0 mg/kg/injection, schedule: Q01DX009 (ip), vehicle: saline 115 % of control | dose: 225.0 mg/kg/injection, schedule: Q01DX009 (ip), vehicle: saline 95 % of control | dose: 335.0 mg/kg/injection, schedule: Q01DX009 (ip), vehicle: saline 93 % of control

Source: PubChem BioAssay AID248 (DTP/NCI, 2004)
